Test results as given in PubChem BioAssay (NCI).
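All cell lines were grown in 96-well plates and treated with compound for 48 hours. At the TGI there is no net growth.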

Tests used:
Assay in all cases: NCI tumour cell line growth inhibition, 48 h
786-0 renal = tested on: 786-0 renal
A498 renal = tested on: A498 renal
A549 NSCLC = tested on: A549 NSCLC
ACHN renal = tested on: ACHN renal
CAKI-1 renal = tested on: CAKI-1 renal
CCRF-CEM leukemia = tested on: CCRF-CEM leukemia
COLO 205 colon = tested on: COLO 205 colon
DLD-1 colon = tested on: DLD-1 colon
DMS 114 small cell lung = tested on: DMS 114 small cell lung
DMS 273 small cell lung = tested on: DMS 273 small cell lung
EKVX NSCLC = tested on: EKVX NSCLC
HCC-2998 colon = tested on: HCC-2998 colon
HCT-116 colon = tested on: HCT-116 colon
HCT-15 colon = tested on: HCT-15 colon
HL-60(TB) leukemia = tested on: HL-60(TB) leukemia
HOP-18 NSCLC = tested on: HOP-18 NSCLC
HOP-62 NSCLC = tested on: HOP-62 NSCLC
HOP-92 NSCLC = tested on: HOP-92 NSCLC
HT29 colon = tested on: HT29 colon
IGROV1 ovarian = tested on: IGROV1 ovarian
K-562 leukemia = tested on: K-562 leukemia
KM12 colon = tested on: KM12 colon
KM20L2 colon = tested on: KM20L2 colon
LOX IMVI melanoma = tested on: LOX IMVI melanoma
LXFL 529 NSCLC = tested on: LXFL 529 NSCLC
M14 melanoma = tested on: M14 melanoma
M19-MEL melanoma = tested on: M19-MEL melanoma
MALME-3M melanoma = tested on: MALME-3M melanoma
MOLT-4 leukemia = tested on: MOLT-4 leukemia
NCI-H226 lung = tested on: NCI-H226 lung
NCI-H23 lung = tested on: NCI-H23 lung
NCI-H460 lung = tested on: NCI-H460 lung
NCI-H522 lung = tested on: NCI-H522 lung
OVCAR-3 ovarian = tested on: OVCAR-3 ovarian
OVCAR-4 ovarian = tested on: OVCAR-4 ovarian
OVCAR-5 ovarian = tested on: OVCAR-5 ovarian
OVCAR-8 ovarian = tested on: OVCAR-8 ovarian
RPMI-8226 leukemia = tested on: RPMI-8226 leukemia
RXF 393 renal = tested on: RXF 393 renal
SF-268 CNS = tested on: SF-268 CNS
SF-295 CNS = tested on: SF-295 CNS
SF-539 CNS = tested on: SF-539 CNS
SK-MEL-2 melanoma = tested on: SK-MEL-2 melanoma
SK-MEL-5 melanoma = tested on: SK-MEL-5 melanoma
SK-OV-3 ovarian = tested on: SK-OV-3 ovarian
SN12C renal = tested on: SN12C renal
SNB-19 CNS = tested on: SNB-19 CNS
SNB-75 CNS = tested on: SNB-75 CNS
SNB-78 CNS = tested on: SNB-78 CNS
SR leukemia = tested on: SR leukemia
SW-620 colon = tested on: SW-620 colon
TK-10 renal = tested on: TK-10 renal
U251 CNS = tested on: U251 CNS
UACC-257 melanoma = tested on: UACC-257 melanoma
UACC-62 melanoma = tested on: UACC-62 melanoma
UO-31 renal = tested on: UO-31 renal
XF 498 CNS = tested on: XF 498 CNS
RXF-631 renal = tested on: RXF-631 renal
SK-MEL-28 melanoma = tested on: SK-MEL-28 melanoma

Measured: TGI

CCOC(=O)NN1C(=O)C(=P(c2ccccc2)(c2ccccc2)c2ccccc2)C(C(=O)OC)=C1C
not listed: RXF-631 renal | SK-MEL-28 melanoma
> 100 µM: all other assays above

CNC(=O)NCCCCC(NC(C)=O)C(=O)NCc1ccccc1 (configuration not stated)
not listed: HL-60(TB) leukemia | HOP-18 NSCLC | K-562 leukemia | SR leukemia
> 100 µM: all other assays above
